What was measured:
Assay type in all cases: functional, cell membranes, Membrane vesicle
Set-up in all cases: scale not given: the % may be the effect or the level left
[1] = target: ATP-binding cassette sub-family C member 5 (Homo sapiens, UniProt O15440); assay: TP_TRANSPORTER: inhibition of cGMP uptake (cGMP: 5 uM, Probenecid: 50 uM) in membrane vesicles from MRP5-expressing V79 cells; conditions: hamster, v79, 50 µM
MRP5 (ABCC5) [2] = target: T1, MRP5 (ABCC5) (Homo sapiens, UniProt O15440); assay: TP_TRANSPORTER: inhibition of cGMP uptake (cGMP: 5 uM, Fluorescein diacetate: 50 uM) in membrane vesicles from MRP5-expressing V79 cells; conditions: hamster, probe cGMP (5 uM), read-out: Activity
MRP5 (ABCC5) [3] = target: T1, MRP5 (ABCC5); assay: TP_TRANSPORTER: inhibition of cGMP uptake (cGMP: 5 uM, Trequinsin: 1 uM) in membrane vesicles from MRP5-expressing V79 cells; conditions: hamster, probe cGMP (5 uM), read-out: Activity
MRP5 (ABCC5) [4] = target: T1, MRP5 (ABCC5); assay: TP_TRANSPORTER: inhibition of cGMP uptake (cGMP: 5 uM, Zaprinast: 10 uM) in membrane vesicles from MRP5-expressing V79 cells; conditions: hamster, probe cGMP (5 uM), read-out: Activity
MRP5 (ABCC5) [5] = target: T1, MRP5 (ABCC5); assay: TP_TRANSPORTER: inhibition of cGMP uptake (cGMP: 5 uM, Sildenafil: 1 uM) in membrane vesicles from MRP5-expressing V79 cells; conditions: hamster, probe cGMP (5 uM), read-out: Activity

T1 sequence (O15440 whole entry): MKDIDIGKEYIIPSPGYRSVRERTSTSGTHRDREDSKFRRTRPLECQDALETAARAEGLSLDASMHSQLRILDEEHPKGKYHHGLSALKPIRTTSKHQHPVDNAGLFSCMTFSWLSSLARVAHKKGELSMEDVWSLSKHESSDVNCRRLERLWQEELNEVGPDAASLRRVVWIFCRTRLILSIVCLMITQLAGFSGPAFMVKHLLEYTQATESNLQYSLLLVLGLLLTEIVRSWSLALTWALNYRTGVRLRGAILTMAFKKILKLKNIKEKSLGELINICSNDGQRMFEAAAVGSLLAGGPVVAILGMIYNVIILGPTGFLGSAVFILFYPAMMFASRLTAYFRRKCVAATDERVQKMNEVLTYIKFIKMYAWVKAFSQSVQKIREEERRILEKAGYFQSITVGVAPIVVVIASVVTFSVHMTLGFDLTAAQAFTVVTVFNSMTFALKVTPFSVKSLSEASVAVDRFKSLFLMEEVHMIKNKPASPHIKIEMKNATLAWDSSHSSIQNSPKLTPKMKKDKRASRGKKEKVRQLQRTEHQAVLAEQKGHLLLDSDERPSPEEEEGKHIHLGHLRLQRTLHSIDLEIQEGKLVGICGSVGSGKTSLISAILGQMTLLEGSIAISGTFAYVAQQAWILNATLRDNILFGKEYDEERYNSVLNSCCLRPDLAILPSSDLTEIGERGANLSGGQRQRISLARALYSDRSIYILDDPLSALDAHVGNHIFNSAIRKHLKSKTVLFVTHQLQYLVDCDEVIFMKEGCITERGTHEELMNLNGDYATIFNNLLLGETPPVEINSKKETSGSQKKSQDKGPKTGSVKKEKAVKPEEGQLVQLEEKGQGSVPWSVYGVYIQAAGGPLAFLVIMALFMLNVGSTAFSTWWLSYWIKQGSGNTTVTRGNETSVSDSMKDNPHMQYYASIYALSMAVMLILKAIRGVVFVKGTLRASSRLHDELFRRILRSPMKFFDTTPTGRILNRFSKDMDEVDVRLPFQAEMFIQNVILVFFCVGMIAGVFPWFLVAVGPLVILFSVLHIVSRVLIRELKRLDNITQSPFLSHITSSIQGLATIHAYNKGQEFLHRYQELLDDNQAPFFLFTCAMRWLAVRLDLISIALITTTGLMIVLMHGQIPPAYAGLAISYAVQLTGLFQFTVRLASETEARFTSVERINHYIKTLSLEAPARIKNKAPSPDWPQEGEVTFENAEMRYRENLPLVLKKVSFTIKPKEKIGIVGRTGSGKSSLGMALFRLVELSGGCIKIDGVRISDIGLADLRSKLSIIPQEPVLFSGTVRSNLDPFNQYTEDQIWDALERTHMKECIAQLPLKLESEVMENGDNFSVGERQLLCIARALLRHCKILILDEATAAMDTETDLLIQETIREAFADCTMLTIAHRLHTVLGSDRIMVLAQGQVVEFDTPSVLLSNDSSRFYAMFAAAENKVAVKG
ATP-binding cassette sub-family C member 5, sequence (O15440 whole entry): as above

Work on CCCN(CCC)S(=O)(=O)c1ccc(C(=O)O)cc1 [PROBENECID] yielded an Activity [1] of 31.7%.

In the case of CC(=O)Oc1ccc2c(c1)Oc1cc(OC(C)=O)ccc1C21OC(=O)c2ccccc21 [FLUORESCEIN DIACETATE], the activity at 50 µM (MRP5 (ABCC5) [2]) was 49.2%.

For COc1cc2c(cc1OC)-c1c/c(=N\c3c(C)cc(C)cc3C)n(C)c(=O)n1CC2 [TREQUINSIN], the activity at 1 µM (MRP5 (ABCC5) [3]) was 26.2%.

For CCCOc1ccccc1-c1nc2nn[nH]c2c(=O)[nH]1 [ZAPRINAST], the activity at 10 µM (MRP5 (ABCC5) [4]) was 41%.

Molecule CCCc1nn(C)c2c(=O)[nH]c(-c3cc(S(=O)(=O)N4CCN(C)CC4)ccc3OCC)nc12 has an activity at 1 µM (MRP5 (ABCC5) [5]) of 22%.

Source: ChEMBL document CHEMBL2074325, “The multidrug resistance protein 5 functions as an ATP-dependent export pump for cyclic nucleotides” (J Biol Chem, 2000)
